Source: US10406158B2, “Methods and compositions for treating abnormal cell growth” (Verastem, Inc., priority 2014, dated 2019)

Experiments:
[1] = test system: mesothelioma cells (Mero-41); assay: Matrigel on-top (MoT) 3D culture, CellTiter-Glo cell viability, 9x9 combination matrix; assay type: cell-based; conditions: MEK inhibitor in combination with FAK inhibitor VS-6063, 96 hours incubation, compared with Bliss, HSA and Loewe models
Method: (§1) Cell Lines: Cancer cell lines were purchased from American Type Culture Collection (Manassas, VA) and cultured under ATCC recommended standard culture conditions. Mero-41 (mesothelioma cell line) were purchased from Sigma-Aldrich (St. Louis, MO) and cultured under ECACC recommended standard culture conditions. […] TOV-21G (ovarian clear cell carcinoma cell line) were cultured under ECACC recommended standard culture conditions. Growth media for all cell lines were supplemented with penicillin (100 units/ml)/streptomycin (100 μg/ml).
(§2) Compound were used at the top concentration 10 uM in a 2-fold dilution. Paclitaxel was dosed at the top concentration 1 uM in a 3-fold dilution.
(§3) A ‘Matrigel on-top’ (MoT) assay where cells were propagated in a 3-dimentional culture was used. Cells were plated above a dense base layer of Matrigel (BD Biosciences, Franklin Lakes, N.J.), diluted 1:1 with culture medium. Single cell preparations were resuspended in dilute Matrigel (1:50 in culture medium) and seeded to cover the Matrigel base layer. This ensured that ovarian cancer cells were surrounded with extracellular matrix (ECM) components, of which collagen and laminin are the major Matrigel constituents. Cells were seeded in a density of 500 cells per well in 384-well black Ultra-low attachment plates with clear bottom (Corning, Tewksbury MA). […] Cell survival/proliferation was assessed by CellTiter-Glo® Luminescent Cell Viability Assay (Promega, Madison, Wis.).
(§4) Combination effects were evaluated by comparing the averaged viability/inhibition to three different null reference models derived from the single agent activities.
(§5) The expected additivity effect is the statistical expectation for the combined effect from independent inhibitors: Mathematically, Bliss (FU)=FUA1 X FUA2, where FUA1 and FUA2 are the unaffected fraction when treated with compounds Al and A2, respectively.

[2] = test system: breast cancer cells (MDA-MB-231); assay: as above; assay type: cell-based; conditions: MEK inhibitor in combination with FAK inhibitor VS-6063, 96 hours incubation, compared with Bliss, HSA and Loewe models
Method: as §1, §2, §3, §4, §5

| Compound | combination effect on cell viability [1] | combination effect on cell viability [2] |
| --- | --- | --- |
| Cn1cnc2c(F)c(Nc3ccc(Br)cc3Cl)c(C(=O)NOCCO)cc21 [AZD-6244] | more than additive effect |  |
| O=C(NOCCO)c1ccc2cncn2c1Nc1ccc(I)cc1F [GDC-0623] | more than additive effect | more than additive effect |
| O=C(NC[C@H](O)CO)c1ccncc1Nc1ccc(I)cc1F [pimasertib] | more than additive effect | more than additive effect |
| cobimetinib | more than additive effect | more than additive effect |
| trametinib | more than additive effect | more than additive effect |
